Patent US6825178B1, “Methods and products for treating pseudomonas infection” (The Brigham and Women's Hospital, Inc., priority 1996, dated 2004)
Marks after values point to notes of the source that are not given here.

Columns and labels:
[1] = system: A549 cells; test: Inhibition of internalization of P. aeruginosa strain PAO1 into A549 cells; type: cell-based, human; conditions: 1 nM peptide
Experimental: (§1) WI-38 (human diploid lung cell line, ATCC. no. CCL-75) and A549 cells (human lung carcinoma cells, ATCC no. CCL-185) were obtained from the ATCC and grown according to their instructions.
(§2) Bacterial ingestion assay. Cells were released from monolayers in tissue culture flasks by 5 min. of incubation with trypsin-versene mixture (BioWhitaker, Walkersville, Md.), washed, counted and seeded into 96-well tissue culture plates at 10^5 cells/well in supplemented F-12 medium and incubated at 37° C. in 5% CO2. Fresh cultures of P. aeruginosa grown overnight at 37° C. on a tryptic soy agar plate were suspended in supplemented F-12 medium to prepare the bacterial inoculum. Then 10^6 colony forming units (cfu) of the bacterial inoculum were added per well of 10^5 epithelial cells. […] Three to 9 replicates were obtained per point, and analyzed using analysis of variance (ANOVA) and the Fisher PLSD statistic to determine pairwise differences.
(§3) Inhibition of ingestion in the presence of membranes isolated from C127 cells, monoclonal antibodies to extracellular domains of CFTR, or synthetic peptides corresponding to the first or fourth extracellular domains of CFTR was evaluated by adding these materials to the bacteria prior to adding them directly into wells for evaluation of bacterial uptake. […]

[2] = system: WI-38 cells; test: Inhibition of internalization of P. aeruginosa strain PAO1 into WI-38 cells; type: cell-based, human; conditions: strain PAO1, WI 38 cells, 1 nM peptide
Experimental: as §1, §2, §3

[3] = system: transformed human airway epithelial cells (CFT1-LCFSN line); test: Inhibition of internalization of P. aeruginosa strain PAO1 into CFT1-LCFSN cells (bacterial ingestion assay); type: cell-based; conditions: strain PAO1, CFT1-LCFSN cells
Source text: Cell lines. CFT1-LCFSN cells, carrying a retrovirally introduced chromosomal copy of the wild-type human CFTR gene were kindly provided by J. Olsen, J. Yankaskis and L. Johnson from The University of North Carolina, Chapel Hill, N.C.. The cell line parental to CFT1-LCFSN is designated CFT1; it is a line of human papilloma virus 18 E6/E7 transformed bronchial epithelial cells derived from a CF patient homozygous for ΔF508 CFTR. The CFT1-LCFSN cells have normal chloride ion conductance. CFT1-ΔF508 cells are derived from CFT1 cells and carry a cDNA introduced by a retrovirus vector that encodes the ΔF508 mutant form of CFTR. Cells were grown in supplemented F-12 medium as described in 5% CO2 at 37° C.
Bacterial strains. P. aeruginosa strains used include PAO1, a well-characterized laboratory strain, and strains 149 and 324, non-mucoid, LPS-smooth clinical isolates of P. aeruginosa from CF patients early in the course of infection. Fresh cultures of P. aeruginosa grown overnight at 37° C. on a tryptic soy agar plate were suspended in supplemented medium to prepare the bacterial inoculum. Approximately 10^6 cfu of the bacterial inoculum were added per well of 10^5, epithelial cells.
Reagents for inhibition of ingestion assays. Membranes were prepared from C127 cells as described by O'Riordan et al.. Membranes were suspended in 150 mM NaCl, 50 mM Tris, pH 7.5 and 1 mM EDTA and added at the indicated concentration to suspensions of P. aeruginosa strains prior to adding this mixture to CFT1-LCFSN cells to measure bacterial uptake. Membranes from CEM/VbI cells expressing P-glycoprotein and membranes from control CEM cells lacking P-glycoprotein were obtained from James Croop of Harvard Medical School. Purified (˜85%) recombinant CFTR was obtained from Genzyme Corp., and prepared as described. The protein was solubilized in 100 mM NaCl, 10 mM Tris, pH 8.0, 2 mM di-thio-threitol and 0.1% sodium dodecyl sulfate. Monoclonal antibodies raised to synthetic peptides corresponding to the first (MAb CF3) and fourth (MAb CF4) predicted extracellular domains of CFTR, as well as a MAb specific to a peptide representing the carboxy-terminal 14 amino acids of mature CFTR (MAb CF2) were provided by Dr. George Banting, University of Bristol, Bristol, UK [12]. Synthetic peptides were obtained from Chiron Mimetopes, San Diego, Calif. Peptide […] (15 amino acids) (SEQ.ID.NO. 3) represents amino acids 103-117 of mature CFTR, peptide […] (31 amino acids) (SEQ.ID.NO. 4) represents amino acids 881-911 of mature CFTR. Peptides were made up as a stock solution in F-12 medium containing 1 μM/μl based on the purity reported by the manufacturer. Peptides were diluted in F-12 tissue culture medium prior to use in assays.
Bacterial ingestion assay. Cells were released from monolayers in tissue culture flasks by 5 min. of incubation with trypsin-versene mixture (BioWhitaker, Walkersville, Md.), washed, counted and seeded into 96-well tissue culture plates at 10^5 cells/well in supplemented F-12 medium and incubated at 37° C. in 5% CO2. Fresh cultures of P. aeruginosa grown overnight at 37° C. on a tryptic soy agar plate were suspended in supplemented F-12 medium to prepare the bacterial inoculum. Then 10^6 colony forming units (cfu) of the bacterial inoculum were added per well of 10^5 epithelial cells. Bacteria were allowed to invade the epithelial cells for 3 to 4 hours at 37° C., after which nonadherent bacteria were removed by washing. The remaining steps of the assay and the steps involved in the controls have previously been described. Three to 9 replicates were obtained per point, and analyzed using analysis of variance (ANOVA) and the Fisher PLSD statistic to determine pairwise differences. […]

In the case of “LWLLGNTPLQDKGNSTHSRNNSYAVIITSTS (listed as Homo Sapiens) [Fourth domain, reference compound]”, the “Mean cfu (standard deviation) of P. aeruginosa internalized” value [1] is reported as 8.7333 × 10^4 (1.1506 × 10^4) cfu, the “Mean cfu (standard deviation) of P. aeruginosa internalized” value [2] is reported as 7.3433 × 10^4 (9.124 × 10^3) cfu and the “Mean cfu of P. aeruginosa internalized (standard deviation)” value ([3]; 0.001 nanomoles peptide) is reported as 6.978 × 10^4 (5.4745 × 10^3) cfu. For the same sequence, the “Mean cfu of P. aeruginosa internalized (standard deviation)” value ([3]; 0.01 nanomoles peptide) was 7.23 × 10^4 (3.6721 × 10^3) cfu, the “Mean cfu of P. aeruginosa internalized (standard deviation)” value ([3]; 0.1 nanomoles peptide) was 7.488 × 10^4 (5.0653 × 10^3) cfu and the “Mean cfu of P. aeruginosa internalized (standard deviation)” value ([3]; 1 nanomoles peptide) was 8.708 × 10^4 (4.0519 × 10^3) cfu.

With “GRIIASYDPDNKEER (listed as Homo Sapiens) [First domain]” the “Mean cfu (standard deviation) of P. aeruginosa internalized” value [1] was 3.2833 × 10^4 (4.32 × 10^3)^a cfu, the “Mean cfu (standard deviation) of P. aeruginosa internalized” value [2] was 3.497 × 10^4 (3.751 × 10^3)^a cfu and the “Mean cfu of P. aeruginosa internalized (standard deviation)” value ([3]; 0.001 nanomoles peptide) was 5.533 × 10^4 (5.2986 × 10^3) cfu. The “Mean cfu of P. aeruginosa internalized (standard deviation)” value ([3]; 0.01 nanomoles peptide) was 3.482 × 10^4 (3.8473 × 10^3)^a cfu, the “Mean cfu of P. aeruginosa internalized (standard deviation)” value ([3]; 0.1 nanomoles peptide) was 2.513 × 10^4 (1.6609 × 10^3)^a cfu and the “Mean cfu of P. aeruginosa internalized (standard deviation)” value ([3]; 1 nanomoles peptide) was 2.383 × 10^4 (4.6207 × 10^3)^a cfu.
